# Data from the supplement of paper PMC10307832.
# Key:
# Assay in all cases: relative viability (nuclei count vs DMSO), 5 days (fraction); higher = more cells survive
# Ispinesib + Luminespib = compound: Cc1ccc(C(=O)N(CCCN)[C@@H](c2nc3cc(Cl)ccc3c(=O)n2Cc2ccccc2)C(C)C)cc1 [Ispinesib] + CCNC(=O)c1noc(-c2cc(C(C)C)c(O)cc2O)c1-c1ccc(CN2CCOCC2)cc1 [Luminespib] (partner 0.01 µM)
# Method in brief: (§1)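 The day after seeding in 1536-well plates, lung cancer cell lines were treated by pin tool with a single drug, or with a fixed anchor-drug dose together with five library-drug doses (not always all listed) in √10 steps. After 5 days, a combined fix-and-stain solution (final 0.05% Triton X-100, 1% formaldehyde, 1 ug/ml Hoechst) was added. Nuclei counted on 4× images gave relative viability as treated counts over vehicle counts, reported as the median of duplicate plates.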
# Linsitinib + Olaparib = compound: C[C@]1(O)C[C@@H](c2nc(-c3ccc4ccc(-c5ccccc5)nc4c3)c3c(N)nccn32)C1 [Linsitinib] + O=C(c1cc(Cc2n[nH]c(=O)c3ccccc23)ccc1F)N1CCN(C(=O)C2CC2)CC1 [Olaparib] (partner 8 µM)
# Method in brief: as §1
# Linsitinib + Tozasertib = compound: C[C@]1(O)C[C@@H](c2nc(-c3ccc4ccc(-c5ccccc5)nc4c3)c3c(N)nccn32)C1 [Linsitinib] + Cc1cc(Nc2cc(N3CCN(C)CC3)nc(Sc3ccc(NC(=O)C4CC4)cc3)n2)n[nH]1 [Tozasertib] (partner 0.1 µM)
# Method in brief: as §1
# Ispinesib + Dasatinib = compound: Cc1ccc(C(=O)N(CCCN)[C@@H](c2nc3cc(Cl)ccc3c(=O)n2Cc2ccccc2)C(C)C)cc1 [Ispinesib] + Cc1nc(Nc2ncc(C(=O)Nc3c(C)cccc3Cl)s2)cc(N2CCN(CCO)CC2)n1 [Dasatinib] (partner 0.075 µM)
# Method in brief: as §1
Cell Line,relative viability (Ispinesib + Luminespib; first compound 0.001 µM),relative viability (Ispinesib + Luminespib; first compound 0.003162 µM),relative viability (Ispinesib + Luminespib; first compound 0.01 µM),relative viability (Ispinesib + Luminespib; first compound 0.03162 µM),relative viability (Ispinesib + Luminespib; first compound 0.1 µM),relative viability (Linsitinib + Olaparib; first compound 0.01 µM),relative viability (Linsitinib + Olaparib; first compound 0.03162 µM),relative viability (Linsitinib + Olaparib; first compound 0.1 µM),relative viability (Linsitinib + Olaparib; first compound 0.3162 µM),relative viability (Linsitinib + Olaparib; first compound 1 µM),relative viability (Linsitinib + Tozasertib; first compound 0.01 µM),relative viability (Linsitinib + Tozasertib; first compound 0.03162 µM),relative viability (Linsitinib + Tozasertib; first compound 0.1 µM),relative viability (Linsitinib + Tozasertib; first compound 0.3162 µM),relative viability (Linsitinib + Tozasertib; first compound 1 µM),relative viability (Ispinesib + Dasatinib; first compound 0.001 µM),relative viability (Ispinesib + Dasatinib; first compound 0.003162 µM),relative viability (Ispinesib + Dasatinib; first compound 0.01 µM),relative viability (Ispinesib + Dasatinib; first compound 0.03162 µM),relative viability (Ispinesib + Dasatinib; first compound 0.1 µM)
NCI-H1793,0.198,0.169,0.749,0.144,0.162,0.772,0.841,0.628,0.666,0.697,0.388,0.454,0.316,0.313,0.274,0.361,0.412,0.451,0.334,0.141
CAL-12T,0.318,0.394,0.688,0.379,0.236,0.79,0.899,0.784,0.689,0.713,0.267,0.287,0.296,0.255,0.225,0.376,0.482,0.338,0.128,0.188
NCI-H1993,0.801,0.45,1.01,0.821,0.634,1.09,0.692,0.879,0.698,0.982,0.561,0.606,0.619,0.579,0.602,0.617,0.373,0.634,0.548,0.584
NCI-H1792,0.821,0.435,0.705,0.443,0.471,0.341,0.348,0.373,0.298,0.172,–,–,–,–,–,1.25,0.777,0.776,0.9,0.325
A549,–,–,–,–,–,0.344,0.376,0.384,0.244,0.195,–,–,–,–,–,–,–,–,–,–
NCI-H1648,–,–,–,–,–,0.766,0.941,1.31,0.377,0.399,0.5,0.697,0.412,–,0.396,–,–,–,–,–
NCI-H1563,0.506,0.462,0.523,0.523,0.55,–,–,–,–,–,–,–,–,–,–,0.395,0.483,0.469,0.417,0.378
NCI-H1623,0.638,0.487,0.578,0.526,0.455,–,–,–,–,–,0.363,0.445,0.412,–,0.364,0.63,0.63,0.523,0.461,0.468
NCI-H1299,–,–,–,–,–,0.915,1.03,1,0.976,0.93,–,–,–,–,–,–,–,–,–,–
HCC-366,–,–,–,–,–,0.354,0.219,0.481,0.332,0.265,0.108,0.147,0.187,0.0897,0.0876,0.701,0.74,0.733,0.704,0.0265
Calu-6,–,–,–,–,–,0.537,0.46,0.542,0.501,0.458,–,–,–,–,–,–,–,–,–,–
